What was measured:
[1] = system: T1, PDE IV isozyme separated from U937 cultured cell; assay: PDE IV inhibitory action; format: biochemical; details: cAMP as substrate, 30° C. for 20 minutes, Probit method
T1 construct: PDE IV isozyme separated from U937 cultured cell by an ion exchange chromatography was used
Method: PDE IV isozyme separated from U937 cultured cell by an ion exchange chromatography was used. The PDE IV isozyme was added to ethylene glycol so that the final concentration of the isozyme was 30% by weight, and the solution was stored at −20° C. The stored solution was dissolved in use. The enzyme activity was measured by using cAMP as a substrate.
On the other hand, the test compound was dissolved in dimethylsulfoxide (DMSO) so that the final concentration of the test compound was 1% by weight (2.5 μL/tube), and the resulting solution was named Solution B.
Formulation of the incubation buffer (pH 7.5): Tris-hydrochloric acid (50 mM), magnesium chloride (6 mM), dithiothreitol (2.5 mM), 5-nucleotidase (4 μg/mL), bovine serum albumin (0.23 mg/mL), and cAMP (1 μM)
A mixture of the Solution B of the test compound and the Solution A was incubated at 30° C. for 20 minutes. Then, 1 mL of a slurry of an anion exchange resin (AG1-X8, 200-400 mesh, chloride form; manufactured by Bio-Rad Laboratories, Inc.) was added thereto, and the reaction was stopped by adsorption of an unreacted substrate on the resin.
After the stop of the reaction, the reaction mixture was centrifuged at a centrifugal acceleration of 800×g for 10 minutes, and 250 μL of the resulting supernatant was transferred in a vial. To the vial was added 5 mL of ACS-II (a scintillator manufactured by Amarsham Bioscience), and a [^3H]-adenosine radio activity was measured as a PDE IV activity by a liquid scintillation counter.

TNFα production = assay: Inhibitory action on galactosamine- and LPS-induced TNFα production; format: in vivo; details: mouse, 0.5 mg/kg orally, serum TNFα one hour after galactosamine and LPS i.v., ELISA
Method: A dose (0.5 mg/kg) of the test compound suspended in 0.5% (W/V) CMC-Na aqueous solution was orally administered to a mouse. After one hour, galactosamine (800 mg/kg) and LPS (5 μg/kg) were intravenously administered to induce TNFα production. The amount of TNFα in serum one hour after the administration of galactosamine and LPS was measured by ELISA method.

CYP2D6 = target: T2, CYP2D6 (Homo sapiens, UniProt P10635); assay: Inhibitory action on drug metabolizing enzyme (CYP2D6/AMMC high throughput inhibitor screening kit); format: in vitro ADME; details: CYP2D6 expression system microsome, AMMC substrate, 37° C. for 30 minutes
T2 construct: purchased BD Bioscience
T2 sequence (P10635 whole entry): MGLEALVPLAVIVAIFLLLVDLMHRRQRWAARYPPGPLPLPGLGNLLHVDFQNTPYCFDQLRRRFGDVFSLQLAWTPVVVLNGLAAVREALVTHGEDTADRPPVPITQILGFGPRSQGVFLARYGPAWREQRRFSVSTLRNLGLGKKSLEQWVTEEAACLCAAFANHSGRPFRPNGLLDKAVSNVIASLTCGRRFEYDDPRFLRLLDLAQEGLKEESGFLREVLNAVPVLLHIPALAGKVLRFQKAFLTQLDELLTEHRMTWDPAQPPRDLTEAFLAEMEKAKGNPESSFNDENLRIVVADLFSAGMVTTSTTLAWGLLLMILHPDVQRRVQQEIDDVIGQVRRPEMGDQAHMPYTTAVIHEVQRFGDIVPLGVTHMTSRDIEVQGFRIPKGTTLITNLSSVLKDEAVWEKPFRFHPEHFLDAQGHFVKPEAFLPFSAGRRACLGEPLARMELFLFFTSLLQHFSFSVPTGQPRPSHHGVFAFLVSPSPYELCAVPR
Method: (§1) Inhibitory actions on CYP2D6 and CYP3A4 were measured by using a CYP2D6/AMMC high throughput inhibitor screening kit and a CYP3A4/BFC high throughput inhibitor screening kit (both manufactured by BD Bioscience), respectively. That is, an NADPH generation system, a cofactor, and the test compound were dispersed in a 96-well plate, and AMMC (CYP2D6) and BFC (CYP3A4), which were fluorescent substrates, were added to each well. Further, CYP2D6 expression system microsome and CYP3A4 expression system microsome were added to each well and incubated at 37° C. for 30 minutes. […] Incidentally, as a control substance of this test, roflumilast was used.

CYP3A4 = target: T3, CYP3A4 (Homo sapiens, UniProt P08684); assay: Inhibitory action on drug metabolizing enzyme (CYP3A4/BFC high throughput inhibitor screening kit); format: in vitro ADME; details: CYP3A4 expression system microsome, BFC substrate, 37° C. for 30 minutes
T3 construct: purchased BD Bioscience
T3 sequence (P08684 whole entry): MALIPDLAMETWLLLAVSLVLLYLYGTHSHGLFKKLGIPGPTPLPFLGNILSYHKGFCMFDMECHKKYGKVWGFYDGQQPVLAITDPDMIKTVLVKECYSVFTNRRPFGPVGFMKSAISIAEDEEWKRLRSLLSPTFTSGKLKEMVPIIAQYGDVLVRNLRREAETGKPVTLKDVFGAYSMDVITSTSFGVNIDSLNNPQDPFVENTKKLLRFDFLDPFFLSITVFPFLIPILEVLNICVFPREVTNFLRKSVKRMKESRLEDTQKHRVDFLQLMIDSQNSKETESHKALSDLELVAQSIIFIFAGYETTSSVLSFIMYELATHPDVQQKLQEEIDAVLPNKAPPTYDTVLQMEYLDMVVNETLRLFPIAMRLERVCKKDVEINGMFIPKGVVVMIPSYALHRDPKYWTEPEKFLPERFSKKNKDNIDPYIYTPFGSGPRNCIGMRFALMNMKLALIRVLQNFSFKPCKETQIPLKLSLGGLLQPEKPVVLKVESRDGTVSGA
Method: as §1

melting point [°C]	SMILES	also measured
–	O=c1c2c(Cc3ccccc3)n[nH]c2c2cccnc2n1-c1cccc(OC(F)(F)F)c1 [Example 1, 3-Benzyl-5-(3-trifluoromethoxyphenyl)-1H-pyrazolo[4,3-c][1,8]-naphthyridin-4(5H)-one]	IC50 [1]: 0.003 µM; Inhibitory rate (%) of TNFα production in 0.5 mg/kg (TNFα production): 47%
–	O=c1c2c(Cc3ccccc3)n[nH]c2c2cccnc2n1-c1cccc(C(F)(F)F)c1 [Example 2, 3-Benzyl-5-(3-trifluoromethylphenyl)-1H-pyrazolo[4,3-c][1,8]-naphthyridin-4(5H)-one]	IC50 [1]: 0.007 µM; Inhibitory rate (%) of TNFα production in 0.5 mg/kg (TNFα production): 55%
292 to 294	O=c1c2c(Cc3ccccc3C(F)(F)F)n[nH]c2c2cccnc2n1-c1ccccc1 [Example 8, 5-Phenyl-3-(2-trifluoromethylbenzyl)-1H-pyrazolo[4,3-c][1,8]naphthyridin-4(5H)-one]	IC50 [1]: 0.003 µM; Inhibitory rate (%) of TNFα production in 0.5 mg/kg (TNFα production): 51%; IC50 (CYP2D6): > 10 µM; IC50 (CYP3A4): > 10 µM
–	CC(c1ccccc1)c1n[nH]c2c1c(=O)n(-c1ccccc1)c1ncccc21 (stereo not shown) [Example 11, 5-Phenyl-3-(1-phenylethyl)-1H-pyrazolo[4,3-c][1,8]naphthyridin-4(5H)-one]	IC50 [1]: 0.014 µM; Inhibitory rate (%) of TNFα production in 0.5 mg/kg (TNFα production): 49%; IC50 (CYP2D6): > 10 µM; IC50 (CYP3A4): 8.9 µM
284 to 287	O=c1c2c(Cc3ccccc3)n[nH]c2c2cnccc2n1-c1ccccc1 [Example 15, 3-Benzyl-5-phenyl-1H-pyrazolo[4,3-c][1,6]naphthyridin-4(5H)-one]	–
255 to 257	O=c1c2c(Cc3ccccc3)n[nH]c2c2ccccc2n1-c1ccccc1 [Example 16, 3-Benzyl-5-phenyl-1H-pyrazolo[4,3-c]quinolin-4(5H)-one]	–
260 to 264	O=c1c2c(Cc3ccccc3C(F)(F)F)n[nH]c2c2cccnc2n1-c1cccc(C(F)(F)F)c1 [Example 17, 3-(2-Trifluoromethylbenzyl)-5-(3-trifluoromethylphenyl)-1H-pyrazolo[4,3-c][1,8]naphthyridin-4(5H)-one]	–
206 to 208	O=c1c2c(Cc3cccc(C(F)(F)F)c3)n[nH]c2c2cccnc2n1-c1cccc(C(F)(F)F)c1 [Example 18, 3-(3-Trifluoromethylbenzyl)-5-(3-trifluoromethylphenyl)-1H-pyrazolo[4,3-c][1,8]naphthyridin-4(5H)-one]	–
145 to 148	O=c1c2c(Cc3ccc(C(F)(F)F)cc3)n[nH]c2c2cccnc2n1-c1cccc(C(F)(F)F)c1 [Example 19, 3-(4-Trifluoromethylbenzyl)-5-(3-trifluoromethylphenyl)-1H-pyrazolo[4,3-c][1,8]naphthyridin-4(5H)-one]	–
247 to 252	O=c1c2c(Cc3ccccc3OC(F)(F)F)n[nH]c2c2cccnc2n1-c1cccc(C(F)(F)F)c1 [Example 20, 3-(2-Trifluoromethoxybenzyl)-5-(3-trifluoromethylphenyl)-1H-pyrazolo[4,3-c][1,8]naphthyridin-4(5H)-one]	–
129 to 132	O=c1c2c(Cc3cccc(OC(F)(F)F)c3)n[nH]c2c2cccnc2n1-c1cccc(C(F)(F)F)c1 [Example 21, 3-(3-Trifluoromethoxybenzyl)-5-(3-trifluoromethylphenyl)-1H-pyrazolo[4,3-c][1,8]naphthyridin-4(5H)-one]	–
134 to 137	O=c1c2c(Cc3ccc(OC(F)(F)F)cc3)n[nH]c2c2cccnc2n1-c1cccc(C(F)(F)F)c1 [Example 22, 3-(4-Trifluoromethoxybenzyl)-5-(3-trifluoromethylphenyl)-1H-pyrazolo[4,3-c][1,8]naphthyridin-4(5H)-one]	–
252 to 255	O=c1c2c(Cc3ccccc3C(F)(F)F)n[nH]c2c2cccnc2n1-c1cccc(OC(F)(F)F)c1 [Example 23, 5-(3-Trifluoromethoxyphenyl)-3-(2-trifluoromethylbenzyl)-1H-pyrazolo[4,3-c][1,8]naphthyridin-4(5H)-one]	–
206 to 209	O=c1c2c(Cc3cccc(C(F)(F)F)c3)n[nH]c2c2cccnc2n1-c1cccc(OC(F)(F)F)c1 [Example 24, 5-(3-Trifluoromethoxyphenyl)-3-(3-trifluoromethylbenzyl)-1H-pyrazolo[4,3-c][1,8]naphthyridin-4(5H)-one]	–
227 to 231	O=c1c2c(Cc3ccc(C(F)(F)F)cc3)n[nH]c2c2cccnc2n1-c1cccc(OC(F)(F)F)c1 [Example 25, 5-(3-Trifluoromethoxyphenyl)-3-(4-trifluoromethylbenzyl)-1H-pyrazolo[4,3-c][1,8]naphthyridin-4(5H)-one]	–
233 to 236	O=c1c2c(Cc3ccccc3OC(F)(F)F)n[nH]c2c2cccnc2n1-c1cccc(OC(F)(F)F)c1 [Example 26, 3-(2-Trifluoromethoxybenzyl)-5-(3-trifluoromethoxyphenyl)-1H-pyrazolo[4,3-c][1,8]naphthyridin-4(5H)-one]	–
174 to 177	O=c1c2c(Cc3cccc(OC(F)(F)F)c3)n[nH]c2c2cccnc2n1-c1cccc(OC(F)(F)F)c1 [Example 27, 3-(3-Trifluoromethoxybenzyl)-5-(3-trifluoromethoxyphenyl)-1H-pyrazolo[4,3-c][1,8]naphthyridin-4(5H)-one]	–
129 to 132	O=c1c2c(Cc3ccc(OC(F)(F)F)cc3)n[nH]c2c2cccnc2n1-c1cccc(OC(F)(F)F)c1 [Example 28, 3-(4-Trifluoromethoxybenzyl)-5-(3-trifluoromethoxyphenyl)-1H-pyrazolo[4,3-c][1,8]naphthyridin-4(5H)-one]	–
303 to 307	O=c1c2c(Cc3ccccc3)n[nH]c2c2ccncc2n1-c1ccccc1 [Example 29, 3-Benzyl-5-phenyl-1H-pyrazolo[4,3-c][1,7]naphthyridin-4(5H)-one]	–
183 to 185	CC(c1ccccc1)c1n[nH]c2c1c(=O)n(-c1cccc(OC(F)(F)F)c1)c1ncccc21 (stereo not shown) [Example 36, 3-(1-Phenylethyl)-5-(3-trifluoromethoxyphenyl)-1H-pyrazolo[4,3-c][1,8]naphthyridin-4(5H)-one]	–
235 to 237	CC(c1ccccc1)c1n[nH]c2c1c(=O)n(-c1cccc(C(F)(F)F)c1)c1ncccc21 (stereo not shown) [Example 42, 3-(1-Phenylethyl)-5-(3-trifluoromethylphenyl)-1H-pyrazolo[4,3-c][1,8]naphthyridin-4(5H)-one]	–
233 to 235	CCC(c1ccccc1)c1n[nH]c2c1c(=O)n(-c1ccccc1)c1ncccc21 (stereo not shown) [Example 43, 5-Phenyl-3-(1-phenylpropyl)-1H-pyrazolo[4,3-c][1,8]naphthyridin-4(5H)-one]	–
234 to 238	O=c1c2c(Cc3cccs3)n[nH]c2c2cccnc2n1-c1cccc(OC(F)(F)F)c1 [Example 45, 3-(2-Thienylmethyl)-5-(3-trifluoromethoxyphenyl)-1H-pyrazolo[4,3-c][1,8]-naphthyridin-4(5H)-one]	–
247 to 251	O=c1c2c(Cc3ccsc3)n[nH]c2c2cccnc2n1-c1cccc(OC(F)(F)F)c1 [Example 46, 3-(3-Thienylmethyl)-5-(3-trifluoromethoxyphenyl)-1H-pyrazolo[4,3-c][1,8]-naphthyridin-4(5H)-one]	–
–	O=C(Nc1c(Cl)cncc1Cl)c1ccc(OC(F)F)c(OCC2CC2)c1 [Roflumilast, reference compound]	Inhibitory rate (%) of TNFα production in 0.5 mg/kg (TNFα production): 50%

Reference: US8193356B2, “Heterocycle compound, and production process and application thereof” (Aska Pharmaceutical Co., Ltd., priority 2005, dated 2012)
